According to patent publication US20260250325A1, “Antiviral Polypeptide Membrane Fusion Inhibitor, and Preparation Method and Application Thereof” (priority 2025, published 2026):
Like-named read-outs stand apart in the source and are kept apart here. Where a SMILES comes first, the peptide text is derived from it. The star is where a group is joined. X1 = CC(C)CCCC(C)C1CCC2C3CC=C4CC(OC(=O)CCC(=O)*)CCC4(C)C3CCC12C

Assays:
RSV A long virus strain = format: cell-based
Experimental: In this embodiment, an RSV-A long virus strain was used as an infection virus in the present disclosure. The anti-RSV activity of the synthesized polypeptide was determined through CPE detection.
The inhibitory activity of the compounds of Table 1-1-Table 1-5, positive polypeptide in Table 1-11, and positive control T-118 against the RSV-A long virus strain was detected.
(§1) Human Epithelial Pharyngeal Carcinoma Cells (HEp-2) were from the American Type Culture Collection (ATCC), with a catalog number CCL-23. The cells were cultured in a DMEM culture solution in which 10% fetal bovine serum, 1% sodium pyruvate, 1% nonessential amino acids, 2 mM glutamine, 100 U/mL penicillin, and 100 μg/mL streptomycin were added. The RSV A long virus strain was from the ATCC, with a catalog number VR-26.
This study used a plaque reduction experiment to detect the in-vitro activity of a test sample against the RSV A long virus strain. The test sample and a control compound were tested at 8 concentrations in duplicated wells. The HEp-2 cells were digested with trypsin and then diluted to a concentration of 300,000 cells per milliliter by using an experimental culture solution. The diluted cells were added to a 96-well cell test board, with 100 μL per well, corresponding to 30000 cells per well. The cells were cultured overnight in a 37° C. incubator with 5% CO2. On the second day, the test sample was diluted in an experimental culture medium at a fold ratio. The sample diluted at a fold ratio and an equal volume of virus (100 PFU per well) were well mixed and incubated at 37° C. in 5% CO2 for 1 h. Then, the culture solution in the 96-well cell test board was discarded, the sample virus mixed solution (200 μL) was added to the 96-well cell culture plate, and incubated at 37° C. in 5% CO2 for 2 hours. After 2 h, the sample virus mixed solution was discarded, and 200 μL of maintenance culture medium containing 0.8% CMC and the corresponding concentration of the test sample was added. A cell control (cells, without compound treatment or viral infection) and a viral control (cell infection virus, without compound treatment) were set. The cells were cultured for 1 day in the 37° C. incubator with 5% CO2. One day after viral infection, the culture medium was discarded, the cells were fixed with 4% paraformaldehyde, and then permeabilization was performed with 0.5% Triton X-100. After the plate was washed with DPBS, an RSV-specific antibody (RSV antibody, diluted 1:3000) was added and incubated at 37° C. for 1 h. Then, a secondary antibody (donkey anti-goat IgG, diluted 1:500) and incubated at 37° C. for 1 h. The secondary antibody was discarded, a TrueBlue solution was added, dyeing was performed for 10 min; and the plate was washed with running water and then air-dried, and the number of spots in each well was counted by using a microplate imaging counter. Raw data was used for calculating the antiviral activity of the samples.
(§2) The raw data for plaque counts and cell viability tests were used for analyzing the antiviral activity and cytotoxicity of the test samples, respectively. A calculation formula was shown as follows.
% inhibition rate=100−(sample value-cell control average value)/(virus control average value-cell control average value)×100%
(§3) Non-linear fitting analysis was performed on the inhibition rate of the sample by using GraphPad Prism (version 10), so as to calculate the IC50 and CC50 values for the sample.
IC50: in an in-vitro antiviral activity experiment, IC50 represented an inhibition ability indicator of a compound to be tested against the Hep-2 cells infected by the RSV A long virus strain.

[1] = Cytotoxicity test in HEp-2 cells (CCK8 cell viability); format: cell-based; conditions: human
Experimental: as §1
A cytotoxicity test and an antiviral test were performed in parallel. The HEp-2 cells were inoculated in the microplate at a density of 30,000 cells per well, and cultured overnight in the 37° C. incubator with 5% CO2. On the next day, the diluted test sample was added. The cell control (cells, without compound treatment) and a culture solution control (culture solution only, without cell or compound treatment) were set. A final concentration of DMSO in the culture solution was 0.5%. The cells were cultured for 1 day in the 37° C. incubator with 5% CO2. Cell viability was detected by using a cell viability detection kit CCK8.
as §2
cell survival rate=(sample value-culture medium control average value)/(cell control average value-culture medium control average value)×100
as §3
CC50: in the in-vitro antiviral activity experiment, CC50 was used to measure the toxicity of the compound to be tested to the Hep-2 cells. To be precise, when the compound to be tested was at a specific concentration, 50% of the Hep-2 cells was caused to die, and this concentration was defined as the CC50. A fitting formula was log (inhibitor) vs. response-Variable slope (four parameters).

[2] = RSV A long virus strain, HEp-2 cells, plaque reduction, 1 day, read-out: IC50
[3] = HEp-2 cells, CCK8, 1 day, read-out: CC50

Molecule	IC50 (RSV A long virus strain; [2])	CC50 at 1 day [1, 3]	IC50 (RSV A long virus strain)	CC50 at 1 day [1]
CC[C@H](C)[C@H](NC(=O)[C@H](CCCCN)NC(=O)[C@H](CCCCN)NC(=O)[C@H](CC(N)=O)NC(=O)[C@@H](NC(=O)[C@H](CC(C)C)NC(=O)[C@H](CCC(=O)O)NC(=O)[C@H](CC(=O)O)NC(=O)[C@H](Cc1ccccc1)NC(C)=O)C(C)C)C(=O)N[C@@H](CCC(=O)O)C(=O)N[C@@H](CCCCN)C(=O)N[C@H](C(=O)N[C@@H](CCC(=O)O)C(=O)N[C@@H](CCC(=O)O)C(=O)N[C@H](C(=O)N[C@@H](CC(N)=O)C(=O)N[C@@H](CCCCN)C(=O)N[C@@H](CCCCN)C(=O)N[C@@H](CO)C(=O)N[C@@H](CC(C)C)C(=O)N[C@@H](CCCCN)C(=O)N[C@@H](CC(C)C)C(=O)N[C@@H](CC(C)C)C(=O)N[C@@H](CCC(=O)O)C(=O)N[C@@H](CO)C(=O)N[C@@H](CCC(=O)O)C(=O)N[C@@H](C)C(=O)N[C@@H](C)C(=O)N[C@@H](C)C(=O)N[C@@H](CCCCN)C(=O)N[C@@H](CCCCNC(=O)CCC(=O)OC1CCC2(C)C(=CCC3C2CCC2(C)C(C(C)CCCC(C)C)CCC32)C1)C(N)=O)C(C)C)[C@@H](C)CC (stereo partly drawn) [Compound 37] (Ac-FDELVNKKIEKIEEVNKKSLKLLESEAAAKK(X1)-NH2)	5.23 µM	4 µM		
Ac-SLEQVNKINEKINKISQSLKKIEESDKKSDEVNAGLEAAAKK-NH2 [Compound 48]			> 8 µM	> 8 µM
CC[C@H](C)[C@H](NC(=O)[C@H](CCCCN)NC(=O)[C@H](CCCCN)NC(=O)[C@H](CC(C)C)NC(=O)[C@H](CO)NC(=O)[C@H](CCC(=O)O)NC(=O)[C@H](CCC(=O)O)NC(=O)[C@@H](NC(=O)[C@H](CCCCN)NC(=O)[C@H](CCCCN)NC(=O)[C@H](CC(N)=O)NC(=O)[C@@H](NC(=O)[C@H](CCC(=O)O)NC(=O)[C@H](CCC(=O)O)NC(=O)[C@@H](NC(=O)[C@H](CCCCN)NC(=O)[C@H](CCCCN)NC(=O)[C@H](CCCCN)NC(=O)[C@H](CC(=O)O)NC(=O)[C@H](Cc1ccccc1)NC(=O)[C@H](CCC(=O)O)NC(=O)[C@H](CC(=O)O)NC(C)=O)[C@@H](C)CC)C(C)C)[C@@H](C)CC)C(=O)N[C@@H](CCC(=O)O)C(=O)N[C@@H](CCC(=O)O)C(=O)N[C@@H](CO)C(=O)N[C@@H](CC(=O)O)C(=O)N[C@@H](CCCCN)C(=O)N[C@@H](CCCCN)C(=O)N[C@@H](CC(C)C)C(=O)N[C@@H](CCC(=O)O)C(=O)N[C@@H](CCC(=O)O)C(=O)N[C@H](C(N)=O)C(C)C [Compound 3] (Ac-DEFDKKKIEEVNKKIEESLKKIEESDKKLEEV-NH2)	4.43 µM	> 8 µM		
CC[C@H](C)[C@H](NC(=O)[C@H](CCCCN)NC(=O)[C@H](CCC(=O)O)NC(=O)[C@H](CC(C)C)NC(=O)[C@H](CO)NC(=O)[C@H](CCC(N)=O)NC(=O)[C@H](CC(N)=O)NC(=O)[C@@H](NC(=O)[C@H](CCCCN)NC(=O)[C@H](CCC(=O)O)NC(=O)[C@H](CC(N)=O)NC(=O)[C@@H](NC(=O)[C@H](CCC(N)=O)NC(=O)[C@H](CO)NC(=O)[C@H](C)NC(=O)[C@H](CC(=O)O)NC(=O)[C@H](Cc1ccccc1)NC(=O)[C@@H](NC(=O)[C@H](CC(C)C)NC(=O)[C@H](CCC(=O)O)NC(=O)[C@H](CC(=O)O)NC(=O)[C@H](Cc1ccc(O)cc1)NC(C)=O)C(C)C)C(C)C)[C@@H](C)CC)C(=O)N[C@@H](CCCNC(=N)N)C(=O)N[C@@H](CCCCN)C(=O)N[C@@H](CO)C(=O)N[C@@H](CC(=O)O)C(=O)N[C@@H](CCC(=O)O)C(=O)N[C@@H](CC(C)C)C(=O)N[C@@H](CC(C)C)C(=O)N[C@@H](Cc1c[nH]cn1)C(=O)N[C@@H](CC(N)=O)C(=O)N[C@H](C(N)=O)C(C)C [Compound 23] (Ac-YDELVFDASQVNEKINQSLEKIRKSDELLHNV-NH2)	2.33 µM	> 8 µM		
CC[C@H](C)[C@H](NC(=O)[C@H](Cc1ccccc1)NC(=O)[C@H](C)NC(=O)[C@H](CC(C)C)NC(=O)[C@H](CO)NC(=O)[C@H](CCC(N)=O)NC(=O)[C@H](CC(N)=O)NC(=O)[C@@H](NC(=O)[C@H](CCCCN)NC(=O)[C@H](CCC(=O)O)NC(=O)[C@H](CC(N)=O)NC(=O)[C@@H](NC(=O)[C@H](CCC(N)=O)NC(=O)[C@H](CCC(=O)O)NC(=O)[C@H](CC(=O)O)NC(=O)[C@H](CO)NC(C)=O)C(C)C)[C@@H](C)CC)C(=O)N[C@@H](CCCNC(=N)N)C(=O)N[C@@H](CCCNC(=N)N)C(=O)N[C@H](C(=O)N[C@@H](CCCNC(=N)N)C(=O)N[C@@H](CCCCN)C(=O)N[C@@H](CC(C)C)C(=O)N[C@@H](CC(C)C)C(=O)N[C@@H](Cc1c[nH]cn1)C(=O)N[C@@H](CC(N)=O)C(=O)N[C@@H](CCC(=O)O)C(=O)N[C@@H](C)C(=O)N[C@@H](C)C(=O)N[C@@H](C)C(=O)N[C@@H](CCCCN)C(=O)N[C@@H](CCCCNC(=O)CCC(=O)OC1CCC2(C)C(=CCC3C2CCC2(C)C(C(C)CCCC(C)C)CCC32)C1)C(N)=O)[C@@H](C)CC (stereo partly drawn) [Compound 31] (Ac-SDEQVNEKINQSLAFIRRIRKLLHNEAAAKK(X1)-NH2)	2.22 µM	> 8 µM		
CC[C@H](C)[C@H](NC(=O)[C@H](CO)NC(C)=O)C(=O)N[C@@H](CO)C(=O)N[C@@H](CCC(N)=O)C(=O)N[C@H](C(=O)N[C@@H](CC(N)=O)C(=O)N[C@@H](CCC(=O)O)C(=O)N[C@@H](CCCCN)C(=O)N[C@H](C(=O)N[C@@H](CC(N)=O)C(=O)N[C@@H](CCC(=O)O)C(=O)N[C@H](C(=O)N[C@@H](CCC(N)=O)C(=O)N[C@@H](CO)C(=O)N[C@@H](CC(C)C)C(=O)N[C@@H](CCC(=O)O)C(=O)N[C@@H](CCC(=O)O)C(=O)N[C@@H](CCCCN)C(=O)N[C@@H](CO)C(=O)N[C@@H](CC(=O)O)C(=O)N[C@@H](CCCCN)C(=O)N[C@@H](CC(C)C)C(=O)N[C@@H](CC(C)C)C(=O)N[C@@H](CCCCN)C(=O)N[C@@H](CO)C(=O)N[C@@H](CCC(=O)O)C(=O)N[C@@H](C)C(=O)N[C@@H](C)C(=O)N[C@@H](C)C(=O)N[C@@H](CCCCN)C(=O)N[C@@H](CCCCNC(=O)CCC(=O)OC1CCC2(C)C(=CCC3C2CCC2(C)C(C(C)CCCC(C)C)CCC32)C1)C(N)=O)[C@@H](C)CC)[C@@H](C)CC)C(C)C (stereo partly drawn) [Compound 35] (Ac-SISQVNEKINEIQSLEEKSDKLLKSEAAAKK(X1)-NH2)	5.53 µM	5.1 µM		
